According to the supplement of paper PMC10307832:

How the values were obtained:
Assay in all cases: relative viability (nuclei count vs DMSO), 5 days (fraction); higher = more cells survive
[1] = compound: CN(C)CC1=CC(=CC=C1)N=C(C2=CC=CC=C2)C3=C(NC4=C3C=CC(=C4)C(=O)N(C)C)O + COc1cccc2cc(-c3nc([C@H]4CC[C@H](C(=O)O)CC4)n4ncnc(N)c34)[nH]c12 [OSI-027] (partner 0.5 µM)
Summary of the method: (§1)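 Lung cancer cell lines in 1536-well plates got either a single drug or a fixed anchor-drug dose together with five library-drug doses (not always all listed) in √10 steps, by pin tool, on the day after seeding. Nuclei were counted after 5 days, and relative viability is the treated-to-vehicle ratio of nuclei counts. Values are medians of duplicate plates.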

[2] = compound: CN(C)CC1=CC(=CC=C1)N=C(C2=CC=CC=C2)C3=C(NC4=C3C=CC(=C4)C(=O)N(C)C)O + CS(=O)(=O)CCNCc1ccc(-c2ccc3ncnc(Nc4ccc(OCc5cccc(F)c5)c(Cl)c4)c3c2)o1 [Lapatinib] (partner 2 µM)
Summary of the method: as §1

[3] = compound: CN(C)CC1=CC(=CC=C1)N=C(C2=CC=CC=C2)C3=C(NC4=C3C=CC(=C4)C(=O)N(C)C)O + C[C@]1(O)C[C@@H](c2nc(-c3ccc4ccc(-c5ccccc5)nc4c3)c3c(N)nccn32)C1 [Linsitinib] (partner 1 µM)
Summary of the method: as §1

[4] = compound: CN(C)CC1=CC(=CC=C1)N=C(C2=CC=CC=C2)C3=C(NC4=C3C=CC(=C4)C(=O)N(C)C)O + Cc1nc(NC(=O)N2CCC[C@H]2C(N)=O)sc1-c1ccnc(C(C)(C)C(F)(F)F)c1 [Alpelisib] (partner 2 µM)
Summary of the method: as §1

Cell Line	relative viability ([1]; first compound 0.08 µM)	relative viability ([1]; first compound 0.253 µM)	relative viability ([1]; first compound 0.8 µM)	relative viability ([1]; first compound 2.53 µM)	relative viability ([1]; first compound 8 µM)	relative viability ([2]; first compound 0.08 µM)	relative viability ([2]; first compound 0.253 µM)	relative viability ([2]; first compound 0.8 µM)	relative viability ([2]; first compound 2.53 µM)	relative viability ([2]; first compound 8 µM)	relative viability ([3]; first compound 0.08 µM)	relative viability ([3]; first compound 0.253 µM)	relative viability ([3]; first compound 0.8 µM)	relative viability ([3]; first compound 2.53 µM)	relative viability ([3]; first compound 8 µM)	relative viability ([4]; first compound 0.08 µM)	relative viability ([4]; first compound 0.253 µM)	relative viability ([4]; first compound 0.8 µM)	relative viability ([4]; first compound 2.53 µM)	relative viability ([4]; first compound 8 µM)
NCI-H23	0.609	0.696	0.518	0.683	0.378	1.39	1.26	1.03	0.984	0.886	0.628	0.73	0.598	0.554	0.531	0.705	0.607	0.754	0.6	0.573
NCI-H322M	0.581	0.562	0.555	0.499	0.475	0.612	0.599	0.54	0.564	0.575	1.04	0.816	0.677	0.887	0.707	0.768	0.714	0.695	0.797	0.708
NCI-H358	0.824	0.706	0.633	0.671	0.549	0.46	0.347	0.468	0.425	0.413	0.779	0.715	0.673	0.621	0.464	0.743	0.814	0.766	0.718	0.606
NCI-H460	0.615	0.727	0.824	0.65	0.335	1.1	0.967	1.04	0.776	0.741	0.841	0.758	0.893	0.471	0.54	0.521	0.454	0.467	0.401	0.229
NCI-H520	0.213	0.247	0.267	0.3	0.218	0.774	0.801	0.766	0.791	0.724	0.896	0.878	0.919	0.834	0.97	0.865	0.871	0.825	0.725	0.656
NCI-H596	0.738	1.03	0.639	0.744	0.659	1.12	1.32	0.971	1.05	1.13	1.11	1.07	1.06	1	1.11	0.504	0.491	0.459	0.536	0.447
NCI-H647	0.711	0.772	0.754	0.461	0.539	1.15	1.03	0.944	0.957	0.603	1.29	1.11	0.858	1.12	0.795	1.2	1.14	1.14	0.98	0.66
NCI-H650	0.529	0.561	0.583	0.507	0.42	1.02	1.12	1.07	0.706	0.755	0.854	0.965	0.952	0.83	0.767	1.05	0.956	1.2	0.945	0.825
NCI-H661	0.718	0.679	0.665	0.718	0.567	0.502	0.433	0.559	0.472	0.291	0.623	0.549	0.529	0.574	0.455	0.67	0.635	0.37	0.685	0.614
NCI-H727	0.72	0.581	0.59	0.573	0.537	0.7	0.855	0.834	0.734	0.665	0.253	0.349	0.197	0.281	0.24	0.631	0.564	0.621	0.603	0.608
NCI-H838	0.347	0.469	0.513	0.417	0.354	0.972	1.01	1.08	0.895	0.685	1.05	0.96	0.981	0.88	0.826	1.06	0.956	0.977	0.883	0.934
NCI-H1355	0.463	0.457	0.393	0.491	0.329	1.08	1.02	0.955	0.948	0.885	0.849	0.885	0.656	0.774	0.762	0.802	0.724	0.681	0.838	0.849
NCI-H1395	0.647	0.813	0.711	0.62	0.628	0.948	1.14	1.2	0.892	0.943	1.08	0.838	1.08	0.788	0.995	1.04	0.948	1.1	0.87	0.964
NCI-H1437	1.02	0.917	0.983	0.877	0.942	0.839	0.772	0.978	0.775	0.835	0.948	1.07	1.05	1.01	1.03	1.01	0.996	0.951	0.906	0.971
NCI-H1651	0.846	0.874	0.731	0.645	0.783	0.76	0.762	0.77	0.599	0.796	0.88	1.2	0.923	0.789	0.801	1.05	0.985	1.03	0.807	0.826
NCI-H1666	0.858	0.851	0.889	0.831	1.05	0.868	0.616	0.887	0.668	0.774	0.695	0.934	0.741	0.941	0.731	1.07	0.98	1.01	1.18	0.946

Cell Line	relative viability ([1]; first compound 0.08 µM)	relative viability ([1]; first compound 0.253 µM)	relative viability ([1]; first compound 0.8 µM)	relative viability ([1]; first compound 2.53 µM)	relative viability ([1]; first compound 8 µM)	relative viability ([2]; first compound 0.08 µM)	relative viability ([2]; first compound 0.253 µM)	relative viability ([2]; first compound 0.8 µM)	relative viability ([2]; first compound 2.53 µM)	relative viability ([2]; first compound 8 µM)	relative viability ([3]; first compound 0.08 µM)	relative viability ([3]; first compound 0.253 µM)	relative viability ([3]; first compound 0.8 µM)	relative viability ([3]; first compound 2.53 µM)	relative viability ([3]; first compound 8 µM)	relative viability ([4]; first compound 0.08 µM)	relative viability ([4]; first compound 0.253 µM)	relative viability ([4]; first compound 0.8 µM)	relative viability ([4]; first compound 2.53 µM)	relative viability ([4]; first compound 8 µM)
NCI-H1734	0.599	0.6	0.56	0.561	0.577	1	1.08	1.02	1.02	0.881	0.763	0.911	0.957	0.9	0.762	0.624	0.71	0.643	0.693	0.5
NCI-H1755	0.707	0.7	0.798	0.773	0.622	1.09	0.98	1.02	0.935	1.07	0.986	1.01	0.926	0.998	0.973	0.903	0.91	0.916	0.867	0.853
NCI-H1792	0.77	0.729	0.709	0.721	0.58	0.866	0.896	0.873	0.818	0.945	0.548	0.493	0.5	0.372	0.424	0.689	0.588	0.669	0.644	0.555
NCI-H1793	0.29	0.299		0.329	0.196	0.79	0.665	0.569	0.823	0.891	0.96	0.84	0.617	1.03	0.806	0.633	0.886	0.58	0.812	0.814
NCI-H1915	0.635	0.643	0.71	0.659	0.575	0.957	0.955	1.05	0.971	0.956	1.09	1.12	1.15	1.02	1.11	1.12	1.05	1.11	1.05	1.02
NCI-H1944	0.447	0.491	0.4	0.355	0.348	0.805	0.835	0.924	0.755	0.765	1.18	1.18	1.01	1.17	1.08	0.828	0.799	0.748	0.826	0.783
NCI-H1975	0.747	0.0592	0.675	0.747	0.585	0.948	0.81	0.835	0.742	0.951	0.935	0.999	0.824	0.871	0.855	0.632	0.646	0.545	0.553	0.471
NCI-H1993	0.529	0.581	0.567	0.531	0.598	1.09	0.882	0.827	0.826	0.706	0.716	0.787	0.7	0.737	0.799	0.83	0.671	0.622	0.694	0.732
NCI-H2009	0.507	0.693	0.764	0.616	0.467	1.07	0.98	1.03	0.813	0.886	1.19	1.21	1.21	1.12	1.19	1.15	1.11	1.1	1.04	1.05
NCI-H2023	0.321	0.468	0.488	0.318	0.335	1.25	0.889	0.812	0.497	0.43	0.625	0.607	0.533	0.563	0.625	0.555	0.685	0.553	0.442	0.451
NCI-H2085	0.856	1.15	0.582	0.955	0.768	0.791	0.844	0.758	0.758	0.733	0.897	0.844	0.875	0.92	0.916	1.03	0.973	1.05	0.949	1.06
NCI-H2087	0.552	0.668	0.569	0.542	0.367	1.08	0.835	1.1	0.942	1.05	0.981	1.01	1.06	0.828	0.966	1.14	1.24	1.15	1.15	0.992
NCI-H2126	0.612	0.745	0.812	0.8	0.676	0.76	0.762	0.73	0.765	0.762	0.701	0.668	0.679	0.759	0.686	0.806	0.784	0.751	0.762	0.779
NCI-H2228	0.638	0.736	0.615	0.492	0.419	1.06	1.13	1.19	0.704	0.846	0.66	0.541	1.12	0.63	0.582	0.452	0.753	0.859	0.687	0.588
NCI-H2347	0.444	0.525	0.407	0.471	0.703	1.01	0.899	0.975	0.953	0.963	1.04	0.995	0.994	1.03	1.05	1.02	0.983	1.07	1.08	1.04
NCI-H2405	0.629	0.653	0.618	0.57	0.544	1.06	1.09	1.15	0.999	0.963	1.01	0.845	1.03	0.867	0.76	0.87	0.713	0.889	0.721	0.654
